pIC50: −log10 of the molar value. Converted amounts (≈) assume the structure as drawn. A value given as a limit tells only on which side of the number the result lay.

The text below walks through data of ChEMBL document CHEMBL3259529, “Strychnobaillonine, an unsymmetrical bisindole alkaloid with an unprecedented skeleton from Strychnos icaja roots” (J Nat Prod, 2014).

One data set concerns Plasmodium falciparum. In words: Antiplasmodial activity against chloroquine-sensitive Plasmodium falciparum 3D7 assessed as growth inhibition by lactate dehydrogenase assay. It counts as functional, organism-based.
Another data set relates to WI-38. Nature of the data set: Cytotoxicity against human WI38 cells assessed as cell viability by WST-1 assay. It counts as cell-based. On the technique in general: Formazan colour is commonly taken as a measure of viable cells.
Data set [1] can be described thus: Selectivity index, ratio of IC50 for human WI38 cells to IC50 for chloroquine-sensitive Plasmodium falciparum 3D7. It counts as toxicity, cell-based, WI-38. Particulars: read-out: Ratio IC50.

As usually defined, the pIC50 is the IC50 on a negative log10 scale, so that one unit is a factor of ten. Broadly, the IC90 is the point of the concentration-response curve where the effect stands at 90%. As a reminder, the IC50 is the point on the concentration scale where inhibition reaches its midpoint. As for `C/C=C1/CN2CC[C@]34c5ccccc5N5C(=O)[C@H]6[C@@H](O)[C@H]7[C@@H]8N(c9ccccc9[C@@]89CCN8C/C(=C/C)[C@@H]7C[C@H]89)[C@@H]6[C@H]([C@H]53)[C@H]1C[C@H]24`, in the data set on Plasmodium falciparum, the pIC50 was 5.96 and the IC90 turned out to be 2.6 µg/mL (≈ 4.24 µM). Besides, the IC50 with WI-38 is more than 10 µg/mL. Also, the selectivity ratio in data set [1] is more than 14.
In the same order, the values of `C/C=C1/CN2[C@@H](C3=C[C@@H]4[C@@H]5N(C3=O)c3ccccc3[C@@]53CCN5C/C(=C/C)[C@@H]4C[C@H]53)C[C@@]34c5ccccc5N5C6=C7[C@H]8C[C@@H]9N(CC[C@@]9%10c9ccccc9N(C6=C([C@H]1C[C@H]23)[C@H]54)[C@@H]7%10)C/C8=C/C` are 6.22, 1.6 µg/mL (≈ 1.85 µM), less than 5 µg/mL and less than 10.1.
Take `C[C@@H]1CC[C@H]2[C@@H](C)C(=O)O[C@@H]3O[C@@]4(C)CC[C@@H]1[C@]32OO4` [ARTEMISININ]: in the data set on Plasmodium falciparum, the IC50 stood at 0.01 µg/mL.
Consider `CC[C@@]1(O)C(=O)OCc2c1cc1n(c2=O)Cc2cc3ccccc3nc2-1` [CAMPTOTHECIN], for which, in the data set on WI-38, the IC50 was 0.03 µg/mL (≈ 0.0861 µM).
